{
  "source": "paper PMC4690453",
  "about": "(Bioorganic & medicinal chemistry letters, 2015)",
  "data": [
    {"tested_on": "NO production in BV2 microglial cell cultures treated with lipopolysachharide (LPS)", "assay": "Inhibition of NO production in LPS-treated BV2 microglial cell cultures", "assay_type": "cell-based", "conditions": "BV2 cells", "values": [
      {"smiles": "O=C(Nc1ccccc1F)[C@H]1C[C@@H]1c1cccc(F)c1", "note": "(racemic) [Compound 1a, N-(2-fluorophenyl)-2-(3-fluorophenyl) cyclopropane-1-carboxamide]", "anti-inflammatory potency compared to DFB (in words)": "decreased anti-inflammatory potency"},
      {"smiles": "O=C(Nc1ccc(F)cc1)[C@H]1C[C@@H]1c1cccc(F)c1", "note": "(racemic) [Compound 1b]", "anti-inflammatory potency compared to DFB (in words)": "decreased anti-inflammatory potency"},
      {"smiles": "O=C(Nc1ccccc1Cl)[C@H]1C[C@@H]1c1cccc(F)c1", "note": "(racemic) [Compound 1c]", "anti-inflammatory potency compared to DFB (in words)": "decreased anti-inflammatory potency"},
      {"smiles": "O=C(Nc1nc2ccccc2s1)[C@H]1C[C@@H]1c1cccc(F)c1", "note": "(racemic) [Compound 1e, N-(Benzo[d]thiazol-2-yl)-2-(3-fluorophenyl)cyclopropane-1-carboxamide]", "anti-inflammatory potency compared to DFB (in words)": "superior potency to DFB"},
      {"smiles": "O=C(Nc1nc2ccccc2[nH]1)[C@H]1C[C@@H]1c1cccc(F)c1", "note": "(racemic) [Compound 1f, N-(1H-benzo[d]imidazol-2-yl)-2-(3-fluorophenyl)cyclopropane-1-carboxamide]", "anti-inflammatory potency compared to DFB (in words)": "superior potency to DFB"},
      {"smiles": "COc1cc(Br)ccc1NC(=O)[C@H]1C[C@@H]1c1cccc(Cl)c1", "note": "(racemic) [Compound 2d, N-(4-Bromo-2-methoxyphenyl)-2-(3-chlorophenyl)cyclopropane-1-carboxamide]", "anti-inflammatory potency compared to DFB (in words)": "decreased potency"},
      {"smiles": "O=C(Nc1nc2ccccc2[nH]1)[C@H]1C[C@@H]1c1cccc(Cl)c1", "note": "(racemic) [Compound 2f]", "anti-inflammatory potency compared to DFB (in words)": "improved potency"}
    ]},
    {"tested_on": "BV2 microglial cells", "assay": "Cell viability assay", "assay_type": "cell-based", "conditions": "not given", "values": [
      {"smiles": "COc1cc(Br)ccc1NC(=O)[C@H]1C[C@@H]1c1cccc(F)c1", "note": "(racemic) [Compound 1d, N-(4-Bromo-2-methoxyphenyl)-2-(3-fluorophenyl)cyclopropane-1-carboxamide]", "BV2 cell toxicity / viability (in words)": "excellent BV2 microglial cell viability"},
      {"smiles": "O=C(N[C@H]1C[C@@H]1c1cccc(F)c1)c1cccc(F)c1", "note": "(racemic) [Compound 3a, 3-fluoro-N-(2-(3-fluorophenyl)cyclopropyl)benzamide]", "BV2 cell toxicity / viability (in words)": "excellent cell viability"},
      {"smiles": "O=C(N[C@H]1C[C@@H]1c1cccc(F)c1)c1cccc([N+](=O)[O-])c1", "note": "(racemic) [Compound 3c]", "BV2 cell toxicity / viability (in words)": "significant BV2 cell toxicity"},
      {"smiles": "O=C(N[C@H]1C[C@@H]1c1cccc(F)c1)c1ccc([N+](=O)[O-])cc1", "note": "(racemic) [Compound 3d]", "BV2 cell toxicity / viability (in words)": "significant BV2 cell toxicity"}
    ]}
  ]
}
